From US9839629B2, “Inhibitors of the renal outer medullary potassium channel” (Merck Sharp & Dohme Corp., priority 2013, dated 2017)

Target: T1, ROMK (Kir1.1) channel (Homo sapiens, UniProt P48048)
T1 sequence (P48048 1-391): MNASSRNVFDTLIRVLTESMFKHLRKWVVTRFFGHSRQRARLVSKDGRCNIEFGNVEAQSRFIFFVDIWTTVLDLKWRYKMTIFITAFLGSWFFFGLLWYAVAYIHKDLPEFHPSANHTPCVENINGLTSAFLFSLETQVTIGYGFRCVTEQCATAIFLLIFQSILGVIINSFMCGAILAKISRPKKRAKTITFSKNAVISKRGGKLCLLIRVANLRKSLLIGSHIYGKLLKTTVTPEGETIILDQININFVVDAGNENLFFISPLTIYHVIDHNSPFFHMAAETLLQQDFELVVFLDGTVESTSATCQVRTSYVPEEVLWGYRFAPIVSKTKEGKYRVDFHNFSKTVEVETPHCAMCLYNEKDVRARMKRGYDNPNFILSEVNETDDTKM
Experiment: Thallium Flux Assay
Format: cell-based
Description: A Thallium Flux Assay was performed on each of the final product compounds in the Examples. When the final product of an Example was an HCl salt, the salt was run in the Assay. This assay has been described previously; see, e.g., PCT Published Application WO 2013/062900.

SMILES | IC50 [µM]
CC1=C(N2CCC3(CCN(C[C@H](O)c4cncc(-n5cnnn5)n4)CC3)CC2)COC1=O [Example 65, (S)-4-(9-(2-(6-(1H-tetrazol-1-yl)pyrazin-2-yl)-2-hydroxyethyl)-3,9-diazaspiro[5.5]undecan-3-yl)-3-methylfuran-2(5H)-one] | 0.109
O=C1C=C(N2CCC3(CCN(CCc4ccc5c(c4)COC5=O)CC3)CC2)CO1 [Example 1, 5-(2-(9-(5-oxo-2,5-dihydrofuran-3-yl)-3,9-diazaspiro[5.5]undecan-3-yl)ethyl)isobenzofuran-1(3H)-one] | 0.017
Cc1c([C@H](O)CN2CCC3(CC2)CCN(C2=CC(=O)OC2)CC3)ccc2c1COC2=O [Example 5, (S)-5-(1-hydroxy-2-(9-(5-oxo-2,5-dihydrofuran-3-yl)-3,9-diazaspiro[5.5]undecan-3-yl)ethyl)-4-methylisobenzofuran-1(3H)-one] | 0.063
COc1cc(C#N)ncc1[C@@H](O)CN1CCC2(CC1)CCN(C1=CC(=O)OC1)CC2 [Example 9, (R)-5-(1-hydroxy-2-(9-(5-oxo-2,5-dihydrofuran-3-yl)-3,9-diazaspiro[5.5]undecan-3-yl)ethyl)-4-methoxypicolinonitrile] | 0.22
O=C1C=C(N2CCC3(CCN(C[C@@H](O)c4ccc(-n5cnnn5)nn4)CC3)CC2)CO1 [Example 17, (R)-4-(9-(2-(6-(1H-tetrazol-1-yl)pyridazin-3-yl)-2-hydroxyethyl)-3,9-diazaspiro[5.5]undecan-3-yl)furan-2(5H)-one] | 0.091
CC1=C(N2CCC3(CCN(C[C@H](O)c4cccc(-n5cnnn5)n4)CC3)CC2)COC1=O [Example 6A, (S)-4-(9-(2-(6-(1H-tetrazol-1-yl)pyridin-2-yl)-2-hydroxyethyl)-3,9-diazaspiro[5.5]undecan-3-yl)-3-methylfuran-2(5H)-one] | 0.022
CC1=C(N2CCC3(CCN(C[C@@H](O)c4cncc(-n5cnnn5)n4)CC3)CC2)COC1=O [Example 66, (R)-4-(9-(2-(6-(1H-tetrazol-1-yl)pyrazin-2-yl)-2-hydroxyethyl)-3,9-diazaspiro[5.5]undecan-3-yl)-3-methylfuran-2(5H)-one] | 0.11
CC1=C(N2CCC3(CCN(C[C@H](O)c4ccc(-n5cnnn5)cn4)CC3)CC2)COC1=O [Example 51, (S)-4-(9-(2-(5-(1H-tetrazol-1-yl)pyridin-2-yl)-2-hydroxyethyl)-3,9-diazaspiro[5.5]undecan-3-yl)-3-methylfuran-2(5H)-one] | 0.07
O=C1C=C(N2CCC3(CCN(C[C@@H](O)c4ccc(-n5cnnn5)cc4F)CC3)CC2)CO1 [Example 23, (S)-4-(9-(2-(2-fluoro-4-(1H-tetrazol-1-yl)phenyl)-2-hydroxyethyl)-3,9-diazaspiro[5.5]undecan-3-yl)furan-2(5H)-one] | 0.028
CC1=C(N2CCC3(CCN(C[C@H](O)c4ccc(-n5cnnn5)cc4F)CC3)CC2)COC1=O [Example 53, (R)-4-(9-(2-(2-fluoro-4-(1H-tetrazol-1-yl)phenyl)-2-hydroxyethyl)-3,9-diazaspiro[5.5]undecan-3-yl)-3-methylfuran-2(5H)-one] | 0.014
CC1=C(N2CCC3(CCN(C[C@@H](O)c4ccnc(-n5cnnn5)c4)CC3)CC2)COC1=O [Example 62, (S)-4-(9-(2-(2-(1H-tetrazol-1-yl)pyridin-4-yl)-2-hydroxyethyl)-3,9-diazaspiro[5.5]undecan-3-yl)-3-methylfuran-2(5H)-one] | 0.039
Cc1c(CCN2CCC3(CC2)CCN(c2c(C)c(=O)c2=O)CC3)ccc2c1COC2=O [Example 3, 3-methyl-4-(9-(2-(4-methyl-1-oxo-1,3-dihydroisobenzofuran-5-yl)ethyl)-3,9-diazaspiro[5.5]undecan-3-yl)cyclobut-3-ene-1,2-dione] | 0.093
Cc1nc(-n2cnnn2)ccc1[C@@H](O)CN1CCC2(CC1)CCN(C1=CC(=O)OC1)C(=O)C2 [Example 26, (R)-9-(2-hydroxy-2-(2-methyl-6-(1H-tetrazol-1-yl)pyridin-3-yl)ethyl)-3-(5-oxo-2,5-dihydrofuran-3-yl)-3,9-diazaspiro[5.5]undecan-2-one] | 0.048
CC1=C(N2CCC3(CCN(C[C@H](O)c4ccc5c(c4C)COC5=O)CC3)CC2=O)COC1=O [Example 28, (R)-9-(2-hydroxy-2-(4-methyl-1-oxo-1,3-dihydroisobenzofuran-5-yl)ethyl)-3-(4-methyl-5-oxo-2,5-dihydrofuran-3-yl)-3,9-diazaspiro[5.5]undecan-2-one] | 0.552
CC1=C(N2CCC3(CCN(C[C@H](O)c4ccc(-n5cnnn5)cc4C)CC3)CC2)COC1=O [Example 55, (R)-4-(9-(2-hydroxy-2-(2-methyl-4-(1H-tetrazol-1-yl)phenyl)ethyl)-3,9-diazaspiro[5.5]undecan-3-yl)-3-methylfuran-2(5H)-one] | 0.011
CC1=C(N2CCC3(CC2)CCN([C@H](CO)c2ccc(-n4cnnn4)cc2C)CC3)COC1=O [Example 57, (S)-4-(9-(2-hydroxy-1-(2-methyl-4-(1H-tetrazol-1-yl)phenyl)ethyl)-3,9-diazaspiro[5.5]undecan-3-yl)-3-methylfuran-2(5H)-one] | 0.232
CC1=C(N2CCC3(CCN(C[C@@H](O)c4ccc(-n5cnnn5)cc4F)CC3)CC2)COC1=O [Example 54, (S)-4-(9-(2-(2-fluoro-4-(1H-tetrazol-1-yl)phenyl)-2-hydroxyethyl)-3,9-diazaspiro[5.5]undecan-3-yl)-3-methylfuran-2(5H)-one] | 0.008

Continued, values first:

IC50 [µM] | SMILES
0.015 | Cc1c(N2CCC3(CCN(C[C@H](O)c4ccc(-n5cnnn5)nc4)CC3)CC2)c(=O)c1=O [Example 81, (R)-3-(9-(2-(6-(1H-tetrazol-1-yl)pyridin-3-yl)-2-hydroxyethyl)-3,9-diazaspiro[5.5]undecan-3-yl)-4-methylcyclobut-3-ene-1,2-dione]
0.049 | Cc1nc(-n2cnnn2)ccc1[C@@H](O)CN1CCC2(CC1)CCN(C1=CC(=O)CC1)CC2 [Example 70, (R)-3-(9-(2-hydroxy-2-(2-methyl-6-(1H-tetrazol-1-yl)pyridin-3-yl)ethyl)-3,9-diazaspiro[5.5]undecan-3-yl)cyclopent-2-enone]
0.034 | Cc1c(N2CCC3(CCN(C[C@@H](O)c4ccc(-n5cnnn5)nc4)CC3)CC2)c(=O)c1=O [Example 82, (S)-3-(9-(2-(6-(1H-tetrazol-1-yl)pyridin-3-yl)-2-hydroxyethyl)-3,9-diazaspiro[5.5]undecan-3-yl)-4-methylcyclobut-3-ene-1,2-dione]
0.114 | COCO[C@H]1CN(C2=C(C)C(=O)OC2)CCC12CCN(C[C@H](O)c1ccc3c(c1C)COC3=O)CC2 [Example 95, 5-{(1R)-1-hydroxy-2-[(7R)-7-(methoxymethoxy)-9-(4-methyl-5-oxo-2,5-dihydrofuran-3-yl)-3,9-diazaspiro[5.5]undec-3-yl]ethyl}-4-methyl-2-benzofuran-1(3H)-one]
0.257 | Cc1c(N2CCC3(CCN(C[C@@H](O)c4ccc5c(ccc6nnnn65)c4)CC3)CC2)c(=O)c1=O [Example 89, (S)-3-(9-(2-hydroxy-2-(tetrazolo[1,5-a]quinolin-7-yl)ethyl)-3,9-diazaspiro[5.5]undecan-3-yl)-4-methylcyclobut-3-ene-1,2-dione]
0.116 | O=C1C=C(N2CCC3(CCN(C(=O)Cc4ccc(-n5cnnn5)cc4)CC3)CC2)CO1 [Example 102, 4-(9-{[4-(1H-tetrazol-1-yl)phenyl]acetyl}-3,9-diazaspiro[5.5]undec-3-yl)furan-2(5H)-one]
0.483 | Cc1c(CC(=O)N2CCC3(CC2)CCN(C2=CC(=O)OC2)CC3)ccc2c1COC2=O [Example 105, 4-methyl-5-{2-oxo-2-[9-(5-oxo-2,5-dihydrofuran-3-yl)-3,9-diazaspiro[5.5]undec-3-yl]ethyl}-2-benzofuran-1(3H)-one]
0.08 | Cc1c(N2CCC3(CCN(C[C@H](O)c4cnc(-n5cnnn5)cn4)CC3)CC2)c(=O)c1=O [Example 85, (S)-3-(9-(2-(5-(1H-tetrazol-1-yl)pyrazin-2-yl)-2-hydroxyethyl)-3,9-diazaspiro[5.5]undecan-3-yl)-4-methylcyclobut-3-ene-1,2-dione]
0.069 | CC1=C(N2CCC3(CCN(C[C@H](O)c4ccc(-n5cnnn5)nc4C)CC3)CC2)CCC1=O [Example 74, (R)-3-(9-(2-hydroxy-2-(2-methyl-6-(1H-tetrazol-1-yl)pyridin-3-yl)ethyl)-3,9-diazaspiro[5.5]undecan-3-yl)-2-methylcyclopent-2-enone]
0.246 | O=C1C=C(N2CCC3(CCN(C(=O)Cc4cnc(-n5cnnn5)c(F)c4)CC3)CC2)CO1 [Example 101, 4-(9-{[5-fluoro-6-(1H-tetrazol-1-yl)pyridin-3-yl]acetyl}-3,9-diazaspiro[5.5]undec-3-yl)furan-2(5H)-one]
0.198 | CO[C@@H](CN1CCC2(CC1)CCN(C1=CC(=O)OC1)CC2)c1ccc2c(c1C)COC2=O [Example 91, (R)-5-(1-methoxy-2-(9-(5-oxo-2,5-dihydrofuran-3-yl)-3,9-diazaspiro[5.5]undecan-3-yl)ethyl)-4-methylisobenzofuran-1(3H)-one]
0.408 | O=C1C=C(N2CCC3(CCN(C(=O)Cc4c(F)cc(-n5cnnn5)cc4F)CC3)CC2)CO1 [Example 100, 4-(9-{[2,6-difluoro-4-(1H-tetrazol-1-yl)phenyl]acetyl}-3,9-diazaspiro[5.5]undec-3-yl)furan-2(5H)-one]
0.279 | CC1=C(N2CCC3(CCN(C[C@@H](O)c4ccc(-n5cnnn5)nc4C)CC3)CC2)CCC1=O [Example 75, (S)-3-(9-(2-hydroxy-2-(2-methyl-6-(1H-tetrazol-1-yl)pyridin-3-yl)ethyl)-3,9-diazaspiro[5.5]undecan-3-yl)-2-methylcyclopent-2-enone]
